The source of these data is EP1268431B1 (Wyeth, priority 2000, dated 2001).

One test concerns the target T1, c-Src (Homo sapiens, UniProt P12931).
T1 construct: purchased Upstate Biotechnologies
Nature of the test: c-Src Kinase Assay (ELISA format). In kind it is biochemical. The following applies: for inhibition at 0.01 µM: at 10 nM. The gist of the method:
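Partially purified Src preincubated with compound and biotinylated peptide 10 min at 30 °C in Tris-HCl pH 7.5 with MgCl2, EGTA, vanadate; ATP-started reaction ran 1 h at 30 °C, EDTA-stopped. Phosphopeptide captured on streptavidin, detected by HRP anti-phosphotyrosine; % inhibition = (1 − Abs/Abs(max)) × 100.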
A general note: In an ELISA, binding on a coated surface is turned into a signal by an enzyme label.

Test [1] deals with Rat2 fibroblasts stably transformed with a plasmid containing a CMV promotor controlled v-Src/Hu c-Src fusion gene. Nature of the test: Anchorage Independent Src-transformed Fibroblast Proliferation Assay.
[2] abbreviates: Rattus norvegicus, Rat2, 120 h, read-out: anch-indep src-tx fib IC50, suspension growth, MTS on Day 5.
Where [3] appears, read: read-out: anch-indep src-tx fib IC50, suspension growth, MTS on Day 5.

pIC50: −log10 of the molar value. Several values for one entry are separate records, joined by “and”; a condition that tells them apart may be missing. Equal values may be shown once. Read-outs that look alike come from different tables or passages of the source. A value given as a limit tells only on which side of the number the result lay.

T1 sequence (P12931 whole entry, species assumed): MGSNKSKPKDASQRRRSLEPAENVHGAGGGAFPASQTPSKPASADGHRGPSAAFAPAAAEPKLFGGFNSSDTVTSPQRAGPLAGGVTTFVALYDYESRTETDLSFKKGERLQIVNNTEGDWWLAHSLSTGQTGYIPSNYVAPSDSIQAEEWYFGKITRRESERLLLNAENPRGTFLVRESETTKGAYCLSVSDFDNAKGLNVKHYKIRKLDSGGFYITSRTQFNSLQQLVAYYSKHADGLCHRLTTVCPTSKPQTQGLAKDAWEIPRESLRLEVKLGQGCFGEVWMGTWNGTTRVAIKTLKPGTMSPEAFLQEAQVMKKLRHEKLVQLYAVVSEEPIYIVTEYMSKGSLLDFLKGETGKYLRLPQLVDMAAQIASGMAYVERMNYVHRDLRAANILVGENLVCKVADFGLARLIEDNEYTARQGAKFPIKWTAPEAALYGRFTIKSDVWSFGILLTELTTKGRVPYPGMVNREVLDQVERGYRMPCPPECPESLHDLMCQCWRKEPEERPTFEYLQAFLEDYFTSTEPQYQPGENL

One may read the pIC50 as −log10 of the IC50, conventionally taken in molar units. For the compound `COc1cc(Nc2c(C#N)cnc3cc(-c4cc5ccccc5o4)ccc23)c(Cl)cc1Cl` [Example 119, 7-(1-Benzofuran-2-yl)-4-(2,4-dichloro-5-methoxyanilino)-3-quinolinecarbonitrile], the results for the pIC50 (against c-Src; in test [1] (setting [2])) were 6.89 and below 5.00, respectively.

With `COc1cc(Nc2c(C#N)cnc3cc(-c4cc5ccccc5s4)ccc23)c(Cl)cc1Cl` [Example 120], the pIC50 at c-Src was 6.77; in test [1] (setting [3]), below 5.00.

Regarding `COc1cc(Nc2c(C#N)cnc3cc(-c4ccc(C(=O)O)cc4)ccc23)c(Cl)cc1Cl` [Example 121, 4-[3-Cyano-4-(2,4-dichloro-5-methoxyanilino)-7-quinolinyl]benzoic acid], the pIC50 is 8.32 and 8.74 against c-Src; below 5.00 in test [1] (setting [2]).

On to `COc1ccc(Cl)c(Nc2c(C#N)cnc3cc(-c4csc(CN5CCOCC5)c4)ccc23)c1` [Example 131, 4-(2-chloro-5-methoxyanilino)-7-[5-(4-morpholinylmethyl)-3-thienyl]-3-quinolinecarbonitrile], for which the pIC50 on c-Src was 8.70; in test [1] (setting [2]), 7.05.

As to `COc1cc(Nc2c(C#N)cnc3cc(-c4ccc(CN5CCOCC5)c(CN5CCOCC5)c4)ccc23)c(Cl)cc1C` [Example 133, 7-[3,4-bis(4-morpholinylmethyl)phenyl]-4-(2-chloro-5-methoxy-4-methylanilino)-3-quinolinecarbonitrile], the pIC50 was 8.15 against c-Src and 6.14 in test [1] (setting [2]).

On to `COc1cc(Nc2c(C#N)cnc3cc(/C=C/c4ccccc4)ccc23)c(Cl)cc1Cl` [Example 139, 4-(2,4-dichloro-5-methoxyanilino)-7-[(E)-2-phenylethenyl]-3-quinolinecarbonitrile], for which the negative logarithm of the IC50 (pIC50) was 6.52 and 6.47 on c-Src; below 5.00 in test [1] (setting [2]).

In the case of `COc1cc(Nc2c(C#N)cnc3cc(C#Cc4ccccc4)ccc23)c(Cl)cc1Cl` [Example 140, 4-(2,4-dichloro-5-methoxyanilino)-7-(2-phenylethynyl)-3-quinolinecarbonitrile], the pIC50 was 6.62 and 6.70 on c-Src; below 5.00 in test [1] (setting [2]).

With `COc1cc(Nc2c(C#N)cnc3cc(C#Cc4ccc(C)cc4)ccc23)c(Cl)cc1Cl` [Example 141, 4-(2,4-dichloro-5-methoxyanilino)-7-[2-(4-methylphenyl)ethynyl]-3-quinolinecarbonitrile], the figures for the pIC50 (against c-Src; in test [1] (setting [2])) were 6.12 and below 5.00, respectively.

With `COc1cc(Nc2c(C#N)cnc3cc(/C=C/C(=O)OC(C)(C)C)ccc23)c(Cl)cc1Cl` [Example 142, tert-butyl (E)-3-[3-cyano-4-(2,4-dichloro-5-methoxyanilino)-7-quinolinyl]-2-propenoate], the pIC50 against c-Src was 7.51; in test [1] (setting [2]) it was below 5.00.

`COc1cc(Nc2c(C#N)cnc3cc(C#CCO)ccc23)c(Cl)cc1Cl` [Example 143, 4-(2,4-dichloro-5-methoxyanilino)-7-(3-hydroxy-1-propynyl)-3-quinolinecarbonitrile]: the pIC50 against c-Src was 7.59; in test [1] (setting [2]), below 5.00.

For the compound `CCOC(=O)CC1CCN(Cc2ccc(-c3ccc4c(Nc5cc(OC)c(Cl)cc5Cl)c(C#N)cnc4c3)cc2)CC1` [Example 144, ethyl (1-{4-[3-cyano-4-(2,4-dichloro-5-methoxyanilino)-7-quinolinyl]benzyl}-4-piperidinyl)acetate], the results for the pIC50 (on c-Src; in test [1] (setting [2])) were 8.40 and 7.04, respectively.

As a reminder, the inhibition is the drop in the measured response relative to a control, in per cent. In turn, `CCOC(=O)C1CCCCN1Cc1ccc(-c2ccc3c(Nc4cc(OC)c(Cl)cc4Cl)c(C#N)cnc3c2)cc1` (centres unmarked) [Example 145, ethyl 1-{4-[3-cyano-4-(2,4-dichloro-5-methoxyanilino)-7-quinolinyl]benzyl}-2-piperidinecarboxylate] came in with an inhibition at 0.01 µM at c-Src of 17%. Further, the pIC50 in test [1] (setting [2]) was below 5.00.

For `COc1cc(Nc2c(C#N)cnc3cc(-c4ccc(CN5CCCCC5C(=O)O)cc4)ccc23)c(Cl)cc1Cl` (centres unmarked) [Example 147, 1-{4-[3-cyano-4-(2,4-dichloro-5-methoxyanilino)-7-quinolinyl]benzyl}-2-piperidinecarboxylic acid], the results for the pIC50 (against c-Src; in test [1] (setting [2])) were 9.33 and 5.34, respectively.

On to `CCOC(=O)C1CCCN(Cc2ccc(-c3ccc4c(Nc5cc(OC)c(Cl)cc5Cl)c(C#N)cnc4c3)cc2)C1` (centres unmarked) [Example 148, ethyl 1-(4-{3-cyano-4-[(2,4-dichloro-5-methoxyphenyl)amino]-7-quinolinyl}benzyl)-3-piperidinecarboxylate], for which the pIC50 at c-Src is 8.07; in test [1] (setting [2]), 5.68.

Regarding `COc1cc(Nc2c(C#N)cnc3cc(-c4ccc(CN5CCCC(C(=O)O)C5)cc4)ccc23)c(Cl)cc1Cl` (centres unmarked) [Example 149, 1-(4-{3-cyano-4-[(2,4-dichloro-5-methoxyphenyl)amino]-7-quinolinyl}benzyl)-3-piperidinecarboxylic acid], the pIC50 against c-Src was 9.17; in test [1] (setting [2]) it was 5.60.

With `COc1cc(Nc2c(C#N)cnc3cc(-c4ccc(CN5CCS(=O)(=O)CC5)cc4)ccc23)c(Cl)cc1Cl` [Example 150, 4-[(2,4-dichloro-5-methoxyphenyl)amino]-7-{4-[(1,1-dioxido-4-thiomorpholinyl)methyl]phenyl}-3-quinolinecarbonitrile], the pIC50 was 7.89 and 8.18 at c-Src; 6.30 in test [1] (setting [2]); 6.28 in test [1] (setting [3]).

As to `COc1cc(Nc2c(C#N)cnc3cc(-c4ccc(CO)n4C)ccc23)c(Cl)cc1Cl` [Example 162, 4-(2,4-dichloro-5-methoxyanilino)-7-[5-(hydroxymethyl)-1-methyl-1H-pyrrol-2-yl]-3-quinolinecarbonitrile], the pIC50 was 7.12 at c-Src and below 5.00 in test [1] (setting [2]).

As to `COc1cc(Nc2c(C#N)cnc3cc(-c4sccc4C=O)ccc23)c(Cl)cc1Cl` [Example 163, 4-(2,4-dichloro-5-methoxyanilino)-7-(3-formyl-2-thienyl)-3-quinolinecarbonitrile], the pIC50 was below 6.00 on c-Src and below 5.00 in test [1] (setting [2]).

With `COc1cc(Nc2c(C#N)cnc3cc(-c4cccn4C(=O)OC(C)(C)C)ccc23)c(Cl)cc1Cl` [Example 164, tert-butyl 2-[3-cyano-4-(2,4-dichloro-5-methoxyanilino)-7-quinolinyl]-1H-pyrrole-1-carboxylate], the pIC50 against c-Src is below 6.00; in test [1] (setting [2]) it was below 5.00.

Take `COc1cc(Nc2c(C#N)cnc3cc(-c4ccc(-c5ccccc5)cc4)ccc23)c(Cl)cc1Cl` [Example 165, 7-[1,1'-biphenyl]-4-yl-4-(2,4-dichloro-5-methoxyanilino)-3-quinolinecarbonitrile]: the inhibition at 0.01 µM on c-Src was 28%. For the same compound, the pIC50 in test [1] (setting [2]) is below 5.00.

Consider `COc1cc(Nc2c(C#N)cnc3cc(C#CCN4CCOCC4)c(OC)cc23)c(Cl)cc1Cl` [Example 166, 4-(2,4-dichloro-5-methoxyanilino)-6-methoxy-7-[3-(4-morpholinyl)-1-propynyl]-3-quinoline-carbonitrile], for which the figures for the pIC50 (against c-Src; in test [1] (setting [2])) were 8.26 and 6.14, respectively.

For `COc1cc(Nc2c(C#N)cnc3cc(-c4csc(CN5CCOCC5)c4)ccc23)c(C)cc1Cl` [Example 167, 4-(4-chloro-5-methoxy-2-methylanilino)-7-[5-(4-morpholinylmethyl)-3-thienyl]-3-quinolinecarbonitrile], the pIC50 against c-Src was 7.92 and 7.80; in test [1] (setting [2]), 6.05.

Regarding `COc1cc(Nc2c(C#N)cnc3cc(-c4cccc(N)c4)ccc23)c(Cl)cc1Cl` [Example 174, 7-(3-aminophenyl)-4-(2,4-dichloro-5-methoxyanilino)-3-quinolinecarbonitrile], the pIC50 was 7.02 on c-Src and 5.25 in test [1] (setting [2]).

For the compound `COC(=O)C1CCN(Cc2ccc(-c3ccc4c(Nc5cc(OC)c(Cl)cc5Cl)c(C#N)cnc4c3)nc2)CC1` [Example 176, 1-{6-[3-cyano-4-(2,4-dichloro-5-methoxyphenylamino)-quinolin-7-yl]-pyridin-3-ylmethyl}piperidine-4-carboxylic acid methyl ester], the values for the pIC50 (on c-Src; in test [1] (setting [2])) were 8.77 and 7.05, respectively.

As to `CCN1CCN(c2ccc(-c3ccc4c(Nc5cc(OC)c(Cl)cc5Cl)c(C#N)cnc4c3)nc2)CC1` [Example 179, 4-[(2,4-dichloro-5-methoxyphenyl)amino]-7-[5-(4-ethyl-1-piperazinyl)-2-pyridinyl]-3-quinolinecarbonitrile], the pIC50 is 9.64 against c-Src and 6.57 in test [1] (setting [2]).

On to `COc1cc(Nc2c(C#N)cnc3cc(-c4cnc(N5CCOCC5)nc4)ccc23)c(Cl)cc1Cl` [Example 186, 4-(2,4-dichloro-5-methoxyanilino)-7-[2-(4-morpholinyl)-5-pyrimidinyl]-3-quinolinecarbonitrile], for which the pIC50 against c-Src is 7.52; in test [1] (setting [2]) it was below 5.00.

Take `COc1cc(Nc2c(C#N)cnc3cc(-c4csc(CN5CCC(O)CC5)c4)ccc23)c(Cl)cc1Cl` [Example 192, 4-(2,4-dichloro-5-methoxyanilino)-7-{5-[(4-hydroxy-1-piperidnyl)methyl]-3-thienyl}-3-quinolinecarbonitrile]: the pIC50 against c-Src is 8.68; in test [1] (setting [2]) it was 6.77.

As for `COc1cc(Nc2c(C#N)cnc3cc(-c4ccc(Oc5ccc(CN6CCOCC6)cc5)nc4)ccc23)c(Cl)cc1Cl` [Example 193, 4-(2,4-dichloro-5-methoxyanilino)-7-{6-[4-(4-morpholinylmethyl)phenoxy]-3-pyridinyl)-3-quinolinecarbonitrile], the pIC50 is 7.47 against c-Src and below 5.00 in test [1] (setting [2]).

`COc1ccc(-c2ccc3c(Nc4cc(OC)c(Cl)cc4Cl)c(C#N)cnc3c2)cc1` [Example 194, 4-(2,4-dichloro-5-methoxyanilino)-7-(4-methoxyphenyl)-3-quinolinecarbonitrile]: the pIC50 is 7.92 against c-Src and below 5.00 in test [1] (setting [2]).
